Results published in patent US20160346255A1, “METHODS, AGENTS AND COMPOSITIONS FOR TREATMENT OF INFLAMMATORY CONDITIONS” (Betanien Hospital, priority 2014, published 2016).
Where two headings read alike, the source gives them in different places. Non-standard residues stand in square brackets, D forms with d. Residues, ends and D or L forms follow the SMILES beside them. d(hArg(Et2)) = CCN=C(NCC)NCCCC[C@@H](N)C(=O)O; hArg(Et2) = CCN=C(NCC)NCCCC[C@H](N)C(=O)O; dPhe(4-Cl) = N[C@H](Cc1ccc(Cl)cc1)C(=O)O; d2Nal = N[C@H](Cc1ccc2ccccc2c1)C(=O)O; dCit = NC(=O)NCCC[C@@H](N)C(=O)O; d3Pal = N[C@H](Cc1cccnc1)C(=O)O

Assays:
Patient with Lupus = assay: Lupus patient treated with degarelix (and earlier therapies); assay type: in vivo, human; settings: for Reducing the pain in their extremities / Side effects: previous therapy
Protocol: Example of Treating a Patient with Lupus with a GnRH Antagonist
Due to their painful condition, they have been followed up by a pain clinic. They were offered a tricyclic antidepressant, amitriptyline 25 mg in March 2014 for their painful condition.
Therefore, we decided to offer […] degarelix. GnRH antagonists have shown anti-inflammatory effects and therefore we considered that degarelix, a depot GnRH antagonist, may have a therapeutic effect in lupus. 09.15.14, […] received […] loading dose of degarelix, 240 mg s.c.
They received their second dose of degarelix in October 2014, 80 mg s.c. They continue on 80 mg s.c. every two weeks.

[1] = system: systemic sclerosis patients; settings: over 12 months; increased from 7; cited from earlier work
patients with IBD = settings: week 2 after an infusion; cited from earlier work
[2] = system: Patient with Ankylosing Spondylitis; assay: Ankylosing spondylitis patient treated with degarelix (and earlier TNF inhibitors); assay type: in vivo, human; settings: ankylosing spondylitis patient
From the text: Example of Treating a Patient with Ankylosing Spondylitis with a GnRH Antagonist
Diagnosed with ankylosing spondylitis in 1984, HLAB27 positive, with repeated iridocyclitis. Used non-steroidal anti-inflammatory drugs previously. They were offered the TNFα inhibitor Golilimumab in 2010. Their disease activity score was 8.9 in October 2010 (see below for explanation of disease activity score) on initiating Golilimumab; by the June 2012 this score had reduced to 6.6, but by May 2013 the effect had worn off and their score was 7.6. May 2013, they initiated Enbrel treatment, but their disease activity increased from 7.6 to 8.3. Due to their poor response to TNFα therapy, they were offered the GnRH antagonist degarelix in September 2014.
Disease activity in ankylosing spondylitis is measured by the BASDAI (Bath Ankylosing Spondylitis Disease Activity Index (1)), which has been extensively validated in clinical trials, 2, 3 and is one of the most commonly used outcome measures in clinical trials. This is a composite index that evaluates fatigue, axial and peripheral pain, stiffness and enthesopathy. Their BASDAI was at 8.7 at baseline. In September 2014 they received their first dose of degarelix 240 mg s.c. By 2 weeks, their BASDAI had reduced to 6.8, and by 6 weeks it had reduced to 5.8. This is the lowest BASDAI score they have ever had since we first started using this method of assessment 4 years ago in 2010. Their morning stiffness lasted 4 hours at baseline, by 6 weeks their morning stiffness had reduced to 2 hours. They had their second dose of degarelix 80 mg s.c in October 2014. Lumbar flexion and maximum arm abduction were increased after 6 weeks of treatment.
Response to therapy in clinical practice is defined as improvement of 2 units or 50% on a 0-10 scale of the BASDAI, and expert opinion that the treatment should be continued. Their reduction by 6 weeks was 2.9 units, and 7.1 units with an 82% BASDAI score improvement by 9 weeks, and we shall continue treatment. A BASDAI 50% improvement is defined as a major clinical response. […] For comparison, approximately 50-60% of patients achieve a BASDAI 50 by 12 weeks on TNF inhibitors (4). Their ESR has decreased from 46 mm to 23 mm, which is their lowest ESR reading in 19 years. […] By 9 weeks of GnRH antagonist therapy, their kidney function has normalized, and fasting glucose reduced from 7.4 to 6.5 mmol/L. By 3 months, the effect on their ankylosing spondylitis remained, creatinine was at 98 μmol/L, with a glomerular filtration rate of 66 ml/min/1.73 m^2 in December 2014.

[3] = system: Patient with Rheumatoid Arthritis; assay: Rheumatoid arthritis patient treated with ganirelix; assay type: in vivo, human; settings: at 4 months
Protocol: (§1) • person with seropositive rheumatoid arthritis with disease duration of 10 years. • Fulfilled ACR 2010 classification criteria for rheumatoid arthritis.
• Had tried almost all available rheumatoid arthritis therapies available previously without effect. • Offered experimental GnRH antagonist therapy, ganirelix 0.75 mg s.c. daily (0.25 mg s.c. three times a day).
• Disease activity score (DAS) reduction from 5.5 to 2.2 (remission). • A DAS reduction of 0.6 units is defined as a clinical response to treatment (1). • […] ESR decreased from 28 mm to 19 mm, with a normalization of their CRP from 23 mg/L to 5 mg/L. This is supported by the decrease in their anti-cyclic citrullinated peptide (CCP) antibodies from 27 μ/mL to 14 μ/mL.

Patient with Tendonitis = assay: Tendonitis patient treated with ganirelix injection; assay type: in vivo, human; settings: 1.5 mg injected around the affected tendon; 2 week post injection
Protocol: • person diagnosed with tendonitis of the elbow with ultrasound confirming tendonitis.
• Treated with an injection of GnRH antagonist, ganirelix 1.5 mg, around the affected tendon.
• Before and 2 week post injection ultrasound images are taken to show a decrease in tendonitis of the elbow. […] Such injections may be administered over the long-term, for example every 3 months to maintain optimal effect.

[4] = system: Patient with Rheumatoid Arthritis; assay: Rheumatoid arthritis patient treated with cetrorelix; assay type: in vivo, human; settings: at 12 weeks
Protocol: as §1
• Had tried all therapies available previously without effect. • Offered experimental GnRH antagonist therapy, cetrorelix in 0.5 mg s.c. daily in October 2014, then 0.75 mg s.c. daily in December 2014.

mice = assay: Mouse study of preventing age related inflammation with cetrorelix; assay type: in vivo; settings: 0.5 mg/kg daily with or without gonadal hormone replacement
Protocol: An animal study is conducted with 40 fertile female mice aged approximately 6-20 months in a control group (group 1) receiving placebo, 40 age and sex matched mice receiving a drug that reduces the activity of GnRH (group 2), such as cetrorelix 0.5 mg/kg daily, and 40 age and sex matched mice receiving the same GnRH inhibitor as group 2, but with the additional replacement of gonadal hormone (oestrogen) to age adjusted pre-chosen levels. All mice are followed prospectively, and evaluated for systemic inflammation markers, atherosclerosis, osteoporosis, LDL, and age at death. The same three interventions and assessments are carried out in three groups of male mice with 40 male mice in each group, aged approximately 6-20 months, replacing the gonadal hormone testosterone to pre-chosen levels in group 3. Mice treated with a drug that reduces the activity of GnRH, such as cetrorelix 0.5 mg/kg daily with or without the replacement of gonadal hormone (preferably with) reach a higher age at death compared with mice in the placebo groups. These mice also show less atherosclerosis, osteoporosis and systemic inflammation than mice in the placebo groups.

[5] = system: patients with active longstanding RA; assay: Double-blinded randomised study of cetrorelix in active longstanding RA (NCT00667758, AGRA); assay type: in vivo, human; settings: preceding the P1NP reduction at day 10
From the text: The manuscript by Kass et al., 2014 Scand. J. Rheumatol., 43 (1), 22-27, describes a short term study of a GnRH antagonist, Cetrorelix (AGRA study). This is the first human study of GnRH antagonist treatment in an inflammatory disease. […] However, some patients did show some response and the response was thought to be limited to patients with above normal levels of LH and FSH (Abstract to the 13th annual American College of Rheumatology meeting). […] However, current TNFα inhibiting therapy in rheumatoid arthritis is long term. […] There are several examples in medicine that give positive immediate effects in disease but are unsuitable for long term use, either due to lack of efficacy, safety or both.
In this double-blinded, single-site study in Norway (ClinicalTrials.gov NCT00667758), 99 patients with active longstanding RA, were randomised to predefined intention-to-treat populations using computer-generated allocation (1:1) in dynamic blocks stratified for sex. Patients were assigned to subcutaneous cetrorelix (n=48) (5 mg days 1-2, 3 mg days 3-5) or placebo (n=51). P1NP was measured on day 10. We investigated serum P1NP between groups, a predefined secondary endpoint. Detailed efficacy and safety data are presented separately.

[6] = system: Patient with Osteoarthritis; assay: Intra-articular cetrorelix in a patient with osteoarthritis; assay type: in vivo, human; settings: 1 mg injected into both knees; 2 week post injection
Protocol: • person with osteoarthritis of both knees diagnosed by X-ray 10 years ago. • Has had synovitis secondary to osteoarthritis in both knees for the last month, confirmed by synovitis on ultrasound. • In order to treat the secondary inflammation as a result of their knee osteoarthritis, they are offered intra-articular GnRH antagonist treatment, for example cetrorelix 1 mg injected into both knees. Subcutaneous cetrorelix for injection can be used. • Before and 2 week post injection ultrasound images are taken to show a decrease in synovitis in the knee joint.

[7] = system: patients with active longstanding RA; settings: 5 days of treatment; Kass et al. 2014; cited from earlier work
[8] = system: patients with psoriasis who were taking lithium; settings: 15 patients, after 10 weeks, cited from earlier work
[9] = system: Patient with Spondyloarthritis; assay: Spondyloarthritis patient treated with oral relugolix; assay type: in vivo, human; settings: 400 mg daily; at 12 weeks, remission; baseline 5
Protocol: • person with spondyloarthritis with disease duration of 5 years.
• Is offered experimental GnRH antagonist therapy, relugolix 400 mg daily for 12 weeks.
• Disease activity in ankylosing spondylitis/spondyloarthritis is measured by the BASDAI score. His BASDAI is 5 at baseline.

## CN(C)CCC=C1c2ccccc2CCc2ccccc21 [amitriptyline]
Patient with Lupus; 25 mg, March 2014
  Effect on pain: no effect
Patient with Lupus; 50 mg, April 2014
  Effect on pain: no effect
Patient with Lupus; 150 mg daily
  Effect on pain: no effect

## O=P1(N(CCCl)CCCl)NCCCO1 (stereo not shown) [cyclophosphamide]
[1]
  Digital ulcers, average number: 9 ulcers

## CN(Cc1cnc2nc(N)nc(N)c2n1)c1ccc(C(=O)N[C@@H](CCC(=O)O)C(=O)O)cc1 [methotrexate]
Patient with Lupus
  Reducing the pain in their extremities: not effective
  Side effects: intolerable side effects such as mouth ulcers

## COc1c(C)c2c(c(O)c1C/C=C(\C)CCC(=O)OCCN1CCOCC1)C(=O)OC2 [mycophenolate mofetil]
Patient with Lupus
  Reducing the pain in their extremities: not effective
  Side effects: intolerable side effects such as mouth ulcers

## Cn1cnc([N+](=O)[O-])c1Sc1ncnc2nc[nH]c12 [azathioprine]
Patient with Lupus
  Reducing the pain in their extremities: not effective
  Side effects: intolerable side effects such as mouth ulcers

## infliximab: anti-TNFα monoclonal antibody
Patients with IBD
  Fecal calprotectin concentration: decreases significantly

## CC(C)C[C@H](CN)CC(=O)O [pregabalin]
Patient with Lupus; up to 150 mg×2
  Effect on pain: no effect

## Golilimumab: TNFα inhibitor Golilimumab
[2]; June 2012, 8.9 on initiating in October 2010
  Disease activity score (BASDAI): 6.6
[2]; May 2013, effect had worn off
  Disease activity score (BASDAI): 7.6

## CCN=C(NCC)NCCCC[C@H](NC(=O)[C@H](CC(C)C)NC(=O)[C@@H](CCCCNC(=NCC)NCC)NC(=O)[C@H](Cc1ccc(O)cc1)NC(=O)[C@H](CO)NC(=O)[C@@H](Cc1cccnc1)NC(=O)[C@@H](Cc1ccc(Cl)cc1)NC(=O)[C@@H](Cc1ccc2ccccc2c1)NC(C)=O)C(=O)N1CCC[C@H]1C(=O)N[C@H](C)C(N)=O [ganirelix] (Ac-[d2Nal][dPhe(4-Cl)][d3Pal]SY[d(hArg(Et2))]L[hArg(Et2)]P[dA]-NH2)
[3]; 0.75 mg s.c. daily, remission, from 5.5
  Disease activity score (DAS): 2.2
[3]; from 27 μ/mL
  Anti-cyclic citrullinated peptide (CCP) antibodies: 14 μ/mL
[3]; from 28 mm
  ESR: 19 mm
[3]; from 113 kIU/L
  Rheumatoid factor: 75 kIU/L
[3]; normalization from 23 mg/L
  CRP: 5 mg/L
Patient with Tendonitis
  Tendonitis of the elbow on ultrasound: decrease

## CC(=O)N[C@H](Cc1ccc2ccccc2c1)C(=O)N[C@H](Cc1ccc(Cl)cc1)C(=O)N[C@H](Cc1cccnc1)C(=O)N[C@@H](CO)C(=O)N[C@@H](Cc1ccc(O)cc1)C(=O)N[C@H](CCCNC(N)=O)C(=O)N[C@@H](CC(C)C)C(=O)N[C@@H](CCCNC(=N)N)C(=O)N1CCC[C@H]1C(=O)N[C@H](C)C(N)=O [cetrorelix] (Ac-[d2Nal][dPhe(4-Cl)][d3Pal]SY[dCit]LRP[dA]-NH2)
[4]; 0.5 then 0.75 mg s.c. daily, from 6.1
  Disease activity score (DAS): 5.5
[4]; from 41 mg/L
  CRP: 18 mg/L
[4]; from 137 kIU/L
  Rheumatoid factor: 111 kIU/L
[4]; normalized from 35 mm
  ESR: 28 mm
mice
  Age at death vs placebo groups: higher
  Atherosclerosis vs placebo groups: less
  Osteoporosis vs placebo groups: less
  Systemic inflammation vs placebo groups: less
[5]
  Disease activity markers and TNF-α (log pg/mL): significant reductions
[6]
  Synovitis in the knee joint on ultrasound: decrease
[7]
  Primary end-point with regard to clinical response: did not meet the primary end-point
  TNFα: possible reduction

## Enbrel
[2]; treatment initiated May 2013 at 7.6
  Disease activity score (BASDAI): 8.3

## O[C@H]1[C@H](O)[C@@H](O)[C@H](O)[C@@H](O)[C@H]1O [inositol]
[8]
  Median PASI score reduction: 35%
[8]; median pretreatment PASI 4.9
  Median PASI score reduction: 1.7 points

## NCC1(CC(=O)O)CCCCC1 [gabapentin]
Patient with Lupus; 100 mg×3 up to 1200 mg×3
  Effect on pain: no effect

## CONC(=O)Nc1ccc(-c2sc3c(c2CN(C)C)c(=O)n(-c2ccc(OC)nn2)c(=O)n3Cc2c(F)cccc2F)cc1 [relugolix]
[9]
  BASDAI: 1.2
